{"source": "paper PMC6910946", "about": "“Multiple roles of Bet v 1 ligands in allergen stabilization and modulation of endosomal protease activity” (Allergy, 2019)", "key": {"[1]": {"target": "T1, Bet_v_1 (Betula pendula, UniProt P15494)", "T1 construct": "made in house", "T1 sequence (P15494 1-160)": "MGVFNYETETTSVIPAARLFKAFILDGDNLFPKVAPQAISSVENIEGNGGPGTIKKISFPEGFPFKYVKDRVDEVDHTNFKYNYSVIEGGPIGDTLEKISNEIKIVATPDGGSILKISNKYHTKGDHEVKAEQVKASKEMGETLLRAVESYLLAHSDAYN", "assay": "Surface acoustic wave (SAW) interaction studies, determination of Kd", "assay_type": "binding", "text": "Surface acoustic wave (SAW) technology and NMR spectroscopy were used to observe the interaction of Bet_v_1 with the selected compounds, including determination of the dissociation constant (K d). The influence of ligand binding on the secondary structure elements and the thermal stability of Bet_v_1 was monitored using circular dichroism (CD, JASCO J‐815 spectropolarimeter, Jasco) and Fourier transform infrared (FTIR) spectroscopy (Tensor II FTIR system, Bruker Optics Inc). A detailed description of these methods is available (Appendix [Link], [Link]).\nTo assess the interactions between Bet_v_1 and Q3OS, DOC, PPE1, LTA, or LPS, we determined the dissociation constants (K d) using SAW binding assays (Table 1, Figure S1), a more quantitative approach than previously described qualitative assays.11, 25 In addition, the LPS‐substructure Kdo2‐Lipid A (Kdo2) was used for binding studies, due to its more homogenous structure but similar immune stimulatory activity when compared to native LPS.\nFor the determination of the affinity constant Kd, we used surface acoustic wave (SAW) technology. The interaction of the six ligands with Bet v 1 was investigated using a sam® 5BLUE biosensor instrument (Nanotemper, Munich, Germany). Bet v 1 was immobilized in PBS on the surface of a SAW CM-Dextran 3D sensor chip. […] For calculating the affinity constant Kd, different concentrations of the ligands dissolved in a 5 mM sodium phosphate buffer, pH 7.4, were applied to the Bet v 1-coupled chip. Depending on the ligand, the concentration range of the injected ligand varied between 5 µM and 500 µM. For the removal of residual ligand between the sample injections, the chip was washed with regeneration buffer (10 mM citric acid buffer, pH 2.8). The recorded SAW phase changes were analyzed using the software TraceDrawer 1.7 (Ridgeview Instruments, Uppsala, Sweden). The affinity constant Kd was calculated by kinetic evaluation and affinity/EC50 estimation. For kinetic evaluation, an OneToOne curve fit was chosen to match the raw data. Experiments were performed with two coated chips in duplicate, and the coupling efficiency was evaluated using a mouse monoclonal anti-Bet v 1 antibody."}, "[2]": {"tested_on": "human monocyte‐derived dendritic cells (moDCs)", "assay": "Activation and cytokine secretion of human moDCs", "assay_type": "cell-based", "details": "Bet v 1 in complex with ligand, 24 h, no LPS co-stimulation", "description": "The ability of ligand‐loaded Bet_v_1 to induce IgE‐antigen cross‐linking and basophil degranulation was assessed by mediator‐release assays using rat basophil (RBL‐2H3) cells, transfected with the human high‐affinity IgE receptor (FcεRI), as previously described.2, 24 In vitro uptake of labeled Bet_v_1 was performed using CD11c^+ murine bone marrow–derived dendritic cells (BMDCs). The maturation of human monocyte‐derived dendritic cells (moDCs) was analyzed as previously described.2 T‐cell proliferation assays using CD4^+ T‐cell hybridomas were performed as previously described.17 A detailed description of the in vitro assays is available (Appendix [Link], [Link]).\nImmature moDCs from PBMCs of either healthy/non-atopic donors (n=5) or atopic patients (n=7) were isolated and cultured as described elsewhere.^6 Cell viability using the Aqua® dye (Invitrogen, Carlsbad, CA, USA), expression of CD1a (eBioscience, Inc., San Diego, CA, USA) and loss of CD14 (BD Biosciences) expression were analyzed by flow cytometry on a Navios flow cytometer (Beckman Coulter, Brea, CA, USA). Cells (1x10^6 cells/ml) were stimulated for 24 hours with 1 µg/ml of Bet v 1 either alone or in complex with one of the three ligands (DOC, PPE1 or Q3OS). As a control, unstimulated moDCs and the individual ligands without Bet v 1 were used at the same concentrations. The cell supernatant was frozen for the analysis of cytokine secretion. Of note, no LPS co-stimulation was induced. The following maturation markers were investigated: CD40 (eBioscience), HLA-DR, CD80, CD83 and CD86 (BD Biosciences). Cytokine expression of CCL17, IL-1β, IL-10 (BD Biosciences), TNFα and IL-6 (eBioscience) was determined by ELISA. Statistical analysis was performed using one-way ANOVA with a Bonferroni post-test to compare all groups. The study was approved by the ethics committee of the medical faculty of Technical University of Munich (54/17 S)."}, "[3]": {"target": "T2, Bet_v_1 (endolysosomal proteases of microsomes) (Betula pendula, UniProt P15494)", "T2 construct": "made in house", "T2 sequence (P15494 1-160)": "T1 sequence (P15494 1-160)", "assay": "In vitro simulation of endolysosomal degradation of Bet v 1 with microsomes", "assay_type": "biochemical", "details": "for generation of the immunodominant T‐cell epitope (number of identified peptides) / accumulation of N‐terminal cluster peptides during Bet v 1 processing: 12 h degradation; for proteolytic stability of Bet v 1 toward endolysosomal proteases: ligand in 10× molar excess, 0-48 h, densitometric analysis of SDS‐PAGE", "description": "The endolysosomal degradation assay was performed with ligand‐bound (either DOC, PPE1, or Q3OS in 10× molar excess) and Bet_v_1 without ligands (apo‐Bet_v_1) as previously described.21 Recombinant human cathepsin S and human legumain were used in proteolytic degradation assays. Experimental details are described in the Appendix [Link], [Link].\nThe endolysosomal degradation assay was performed with ligand-bound (either DOC, PPE1, or Q3OS in 10× molar excess) and Bet v 1 without ligands (apo-Bet v 1) as previously described.^7 The protein (5 µg) was incubated with 7 µg of microsomes in 100 mM citrate buffer pH 4.8 and 2 mM dithiothreitol (DTT) for 0, 0.5, 1, 3, 6, 12, 24, and 48 h at 37°C. The different digestion preparations were analyzed by SDS-PAGE and quantitatively interpreted using Image Lab 4.0.1 Software (Bio-Rad). The generated peptides obtained after 12 h of digestion were analyzed using mass spectrometry with a Q-Exactive Orbitrap Mass Spectrometer (Thermo Fisher Scientific, Waltham, MA, USA), nanoelectrospray, and nano-HPLC (Dionex Ultimate 3000, Thermo Fisher Scientific).\nFor data analysis, the web-based application MSTools was used.^8 For the semi-quantitative analysis of the abundance of the generated peptides at 12 hours of degradation, the obtained peptide sequences were clustered into 7 groups according to their amino acid sequence (cluster 1, GVF-NYE-TET-TSV-IPA-ARL-FKA-F; cluster 2, AIL-DGD-NLF-PKV-APQ-A; cluster 3, AIS-SVE-NIE-GNG-GPG-TIK-KIS-FPE-G; cluster 4, FPF-KYV-KDR-VDE-VDH-TNF-K; cluster 5, YNY-SVI-EGG-PIG-DTL-EKI-SNE-IKI-VAT-PDG-GSI-LK; cluster 6, ISN-KYH-TKG-DHE-VKA-EQV-KAS-KEM-GET-LLR; and cluster 7, RAV-ESY-LLA-HSD-AYN), and the total sum of peak areas of all sequences per cluster was calculated (in percentage)."}, "[4]": {"details": "Bet v 1 immobilized on chip, ligands in 5 mM sodium phosphate buffer pH 7.4, read-out: Binding affinity K d (SAW)"}, "[5]": {"details": "12 h incubation, mass spectrometry"}}, "note": "Like-named read-outs stand apart in the source and are kept apart here."}
{"smiles": "O=c1c(O[C@@H]2O[C@H](CO)[C@@H](O)[C@H](O)[C@H]2O[C@@H]2O[C@H](CO)[C@@H](O)[C@H](O)[C@H]2O)c(-c2ccc(O)c(O)c2)oc2cc(O)cc(O)c12", "note": "[Q3OS, quercetin 3‐O‐sophoroside]", "values": [{"measurement": "Kd", "setting": "[1]; [4]", "value": 1500, "unit": "nM"}, {"measurement": "Kd", "setting": "[1]; Fig. S1 sensorgrams, read-out: Kd (SAW, Fig. S1)", "value": 1470, "unit": "nM"}, {"measurement": "maturation marker expression and Th polarization‐associated cytokines", "setting": "[2]", "value": "None of the above described readouts was influenced"}, {"measurement": "generation of the immunodominant T‐cell epitope (number of identified peptides)", "setting": "[3]", "value": "more efficient generation of the immunodominant T‐cell epitope"}, {"measurement": "diversity of peptides versus apo form of Bet v 1", "setting": "[3]; [5]", "value": 2, "unit": "fold"}, {"measurement": "proteolytic stability of Bet v 1 toward endolysosomal proteases", "setting": "[3]", "value": "only a weakly stabilizing effect over the first 12 hours"}]}
{"smiles": "CCC1C(=O)CC(O)C1/C=C/C(O)CCCCCCCC(=O)O", "note": "(stereo not drawn) [PPE1, E1 phytoprostanes]", "values": [{"measurement": "Kd", "setting": "[1]; [4]", "value": 500, "unit": "nM"}, {"measurement": "maturation marker expression and Th polarization‐associated cytokines", "setting": "[2]", "value": "None of the above described readouts was influenced"}, {"measurement": "accumulation of N‐terminal cluster peptides during Bet v 1 processing", "setting": "[3]", "value": "preferentially accumulated the two N‐terminal cluster peptides"}, {"measurement": "Bet v 1 peptide diversity reduced to (versus apo form)", "setting": "[3]; [5]", "value": 53.9, "unit": "%"}, {"measurement": "proteolytic stability of Bet v 1 toward endolysosomal proteases", "setting": "[3]", "value": "enhanced proteolytic stability"}]}
{"smiles": "C[C@H](CCC(=O)O)[C@H]1CC[C@H]2[C@@H]3CC[C@@H]4C[C@H](O)CC[C@]4(C)[C@H]3C[C@H](O)[C@]12C", "note": "[DOC, sodium deoxycholate, reference compound]", "values": [{"measurement": "Kd", "setting": "[1]; Binding affinity K d (SAW)", "value": 58800, "unit": "nM"}, {"measurement": "Kd", "setting": "[1]; Kd (SAW, Fig. S1)", "value": 58800, "unit": "nM"}, {"measurement": "maturation marker expression and Th polarization‐associated cytokines", "setting": "[2]", "value": "None of the above described readouts was influenced"}, {"measurement": "accumulation of N‐terminal cluster peptides during Bet v 1 processing", "setting": "[3]", "value": "preferentially accumulated the two N‐terminal cluster peptides"}, {"measurement": "generation of the immunodominant T‐cell epitope (number of identified peptides)", "setting": "[3]", "value": "more efficient generation of the immunodominant T‐cell epitope"}, {"measurement": "Bet v 1 peptide diversity reduced to (versus apo form)", "setting": "[3]; [5]", "value": 69.7, "unit": "%"}, {"measurement": "proteolytic stability of Bet v 1 toward endolysosomal proteases", "setting": "[3]", "value": "enhanced proteolytic stability"}]}
